Converted amounts (≈) assume the structure as drawn. The source made the active and inactive calls. The calls are words filed in the database; no cut-off is given here.
What was measured:
[1] = tested on: Staphylococcus epidermidis; experiment: Antibacterial activity against methicillin resistant Staphylococcus epidermidis ATCC 35984 assessed as bacterial count at 4 ug/ml after 8 hrs by time-kill assay; assay type: functional
Staphylococcus aureus [2] = experiment: Antibacterial activity against methicillin resistant Staphylococcus aureus MED 1805 bloodstream isolate assessed as bacterial count at 1 ug/ml after 4 hrs by time-kill assay; assay type: functional
Streptococcus pyogenes [3] = experiment: Antibacterial activity against Streptococcus pyogenes MED 2040 assessed as bacterial count at […] after 4 hrs by time-kill assay; assay type: functional
Streptococcus agalactiae [4] = experiment: Antibacterial activity against Streptococcus agalactiae MED 2038 assessed as bacterial count at 0.5 ug/ml after 4 hrs by time-kill assay; assay type: functional
Streptococcus agalactiae [5] = experiment: Antibacterial activity against Streptococcus agalactiae MED 2038 assessed as bacterial count at 2 ug/ml after 8 hrs by time-kill assay; assay type: functional
Staphylococcus aureus [6] = experiment: Antibacterial activity against methicillin resistant Staphylococcus aureus MED 1805 bloodstream isolate assessed as bacterial count at 16 ug/ml after 24 hrs by time-kill assay; assay type: functional
[7] = tested on: Staphylococcus epidermidis; experiment: Antibacterial activity against methicillin resistant Staphylococcus epidermidis ATCC 35984 assessed as bacterial count at 4 ug/ml after 2 hrs by time-kill assay; assay type: functional
Streptococcus pneumoniae [8] = experiment: Antibacterial activity against multidrug resistant Streptococcus pneumoniae MED 1090 assessed as bacterial count at 8 ug/ml after 24 hrs by time-kill assay; assay type: functional
Staphylococcus aureus [9] = experiment: Antibacterial activity against methicillin resistant Staphylococcus aureus MED 1805 bloodstream isolate assessed as bacterial count at 2 ug/ml after 4 hrs by time-kill assay; assay type: functional
Staphylococcus aureus [10] = experiment: Antibacterial activity against methicillin resistant Staphylococcus aureus MED 2028 osteomyelitis isolate assessed as bacterial count at 1 ug/ml after 2 hrs by time-kill assay; assay type: functional
Streptococcus pyogenes [11] = experiment: (§1) Antibacterial activity against Streptococcus pyogenes MED 2040 assessed as bacterial count at […] after 24 hrs by time-kill assay; assay type: functional
Streptococcus pyogenes [12] = experiment: Antibacterial activity against Streptococcus pyogenes MED 2040 assessed as bacterial count at 0.5 ug/ml after 24 hrs by time-kill assay; assay type: functional
[13] = tested on: Staphylococcus epidermidis; experiment: Antibacterial activity against methicillin resistant Staphylococcus epidermidis ATCC 35984 assessed as bacterial count at 16 ug/ml after 2 hrs by time-kill assay; assay type: functional
[14] = tested on: Staphylococcus epidermidis; experiment: Antibacterial activity against methicillin resistant Staphylococcus epidermidis ATCC 35984 assessed as bacterial count at 8 ug/ml after 2 hrs by time-kill assay; assay type: functional
Streptococcus agalactiae [15] = experiment: Antibacterial activity against Streptococcus agalactiae MED 2038 assessed as bacterial count at […] after 8 hrs by time-kill assay; assay type: functional
Streptococcus pyogenes [16] = experiment: Antibacterial activity against Streptococcus pyogenes MED 2040 assessed as bacterial count at 8 ug/ml after 24 hrs by time-kill assay; assay type: functional
Streptococcus pneumoniae [17] = experiment: Antibacterial activity against multidrug resistant Streptococcus pneumoniae MED 1090 assessed as bacterial count at 2 ug/ml after 24 hrs by time-kill assay; assay type: functional
Streptococcus agalactiae [18] = experiment: Antibacterial activity against Streptococcus agalactiae MED 2038 assessed as bacterial count at 0.5 ug/ml after 8 hrs by time-kill assay; assay type: functional
Streptococcus agalactiae [19] = experiment: Antibacterial activity against Streptococcus agalactiae MED 2038 assessed as bacterial count at 2 ug/ml after 4 hrs by time-kill assay; assay type: functional
Enterococcus faecalis [20] = experiment: Antibacterial activity against Enterococcus faecalis ATCC 51575 assessed as bacterial count at 4 ug/ml after 2 hrs by time-kill assay; assay type: functional
Streptococcus pneumoniae [21] = experiment: Antibacterial activity against multidrug resistant Streptococcus pneumoniae MED 1090 assessed as bacterial count at 2 ug/ml after 2 hrs by time-kill assay; assay type: functional
Staphylococcus aureus [22] = experiment: Antibacterial activity against methicillin resistant Staphylococcus aureus MED 2028 osteomyelitis isolate assessed as bacterial count at 16 ug/ml after 2 hrs by time-kill assay; assay type: functional
Streptococcus pyogenes [23] = experiment: as §1; assay type: functional; remark: listed apart in the source
Streptococcus agalactiae [24] = experiment: Antibacterial activity against Streptococcus agalactiae MED 2038 assessed as bacterial count at […] after 24 hrs by time-kill assay; assay type: functional
Streptococcus pneumoniae [25] = experiment: Antibacterial activity against multidrug resistant Streptococcus pneumoniae MED 1090 assessed as bacterial count at 0.06 ug/ml after 24 hrs by time-kill assay; assay type: functional
Streptococcus agalactiae [26] = experiment: Antibacterial activity against Streptococcus agalactiae MED 2038 by broth microdilution method; assay type: functional
Staphylococcus aureus [27] = experiment: Antibacterial activity against methicillin resistant Staphylococcus aureus MED 2028 osteomyelitis isolate assessed as bacterial count at 2 ug/ml after 24 hrs by time-kill assay; assay type: functional
Streptococcus agalactiae [28] = experiment: Antibacterial activity against Streptococcus agalactiae MED 2038 assessed as bacterial count at 2 ug/ml after 24 hrs by time-kill assay; assay type: functional
[29] = tested on: Staphylococcus epidermidis; experiment: Antibacterial activity against methicillin resistant Staphylococcus epidermidis ATCC 35984 assessed as bacterial count at 2 ug/ml after 8 hrs by time-kill assay; assay type: functional
Enterococcus faecalis [30] = experiment: Antibacterial activity against Enterococcus faecalis ATCC 51575 assessed as bacterial count at 2 ug/ml after 8 hrs by time-kill assay; assay type: functional
Streptococcus pneumoniae [31] = experiment: Antibacterial activity against multidrug resistant Streptococcus pneumoniae MED 1090 assessed as bacterial count at 8 ug/ml after 2 hrs by time-kill assay; assay type: functional
Staphylococcus aureus [32] = experiment: Antibacterial activity against methicillin resistant Staphylococcus aureus MED 1805 bloodstream isolate assessed as bacterial count at 16 ug/ml after 2 hrs by time-kill assay; assay type: functional
Enterococcus faecalis [33] = tested on: Enterococcus faecalis
Staphylococcus aureus [34] = experiment: Antibacterial activity against methicillin resistant Staphylococcus aureus MED 2028 osteomyelitis isolate assessed as bacterial count at 4 ug/ml after 2 hrs by time-kill assay; assay type: functional
Staphylococcus aureus [35] = experiment: Antibacterial activity against methicillin resistant Staphylococcus aureus clinical isolate by broth microdilution method; assay type: functional
Streptococcus pneumoniae [36] = experiment: Antibacterial activity against multidrug resistant Streptococcus pneumoniae MED 1090 assessed as bacterial count at […] after 24 hrs by time-kill assay; assay type: functional
Staphylococcus aureus [37] = experiment: Antibacterial activity against methicillin resistant Staphylococcus aureus MED 2028 osteomyelitis isolate assessed as bacterial count at 4 ug/ml after 8 hrs by time-kill assay; assay type: functional
Streptococcus agalactiae [38] = experiment: Antibacterial activity against Streptococcus agalactiae MED 2038 assessed as bacterial count at 0.5 ug/ml after 24 hrs by time-kill assay; assay type: functional
Streptococcus viridans = experiment: Antibacterial activity against Streptococcus viridans clinical isolate by broth microdilution method; assay type: functional
Streptococcus pneumoniae [39] = experiment: Antibacterial activity against multidrug resistant Streptococcus pneumoniae MED 1090 assessed as bacterial count at 2 ug/ml after 4 hrs by time-kill assay; assay type: functional
Staphylococcus capitis = experiment: Antibacterial activity against methicillin resistant coagulase-negative Staphylococcus capitis clinical isolate by broth microdilution method; assay type: functional
Streptococcus pyogenes [40] = experiment: Antibacterial activity against Streptococcus pyogenes MED 2040 assessed as bacterial count at […] after 2 hrs by time-kill assay; assay type: functional
Staphylococcus aureus [41] = experiment: Antibacterial activity against methicillin resistant Staphylococcus aureus MED 2028 osteomyelitis isolate assessed as bacterial count at 1 ug/ml after 8 hrs by time-kill assay; assay type: functional
Streptococcus pneumoniae [42] = experiment: Antibacterial activity against multidrug resistant Streptococcus pneumoniae MED 1090 assessed as bacterial count at […] after 8 hrs by time-kill assay; assay type: functional

CCCCCCCCCCNCCN[C@@]1(C)C[C@H](O[C@H]2[C@H](Oc3c4cc5cc3Oc3ccc(cc3Cl)[C@@H](O)[C@@H](NC(=O)[C@@H](CC(C)C)NC)C(=O)N[C@@H](CC(N)=O)C(=O)N[C@H]5C(=O)N[C@H]3C(=O)N[C@H](C(=O)N[C@H](C(=O)O)c5cc(O)c(CNCP(=O)(O)O)c(O)c5-c5cc3ccc5O)[C@H](O)c3ccc(c(Cl)c3)O4)O[C@H](CO)[C@@H](O)[C@@H]2O)O[C@@H](C)[C@H]1O [TELAVANCIN]
log10CFU/ml [1]: 3.2
log10CFU/ml (Staphylococcus aureus [2]): 1.8
log10CFU/ml (Streptococcus pyogenes [3]): 1.8
log10CFU/ml (Streptococcus agalactiae [4]): 1
log10CFU/ml (Streptococcus agalactiae [5]): 1
log10CFU/ml (Staphylococcus aureus [6]): 3.3
log10CFU/ml [7]: 1
log10CFU/ml (Streptococcus pneumoniae [8]): 3.4
log10CFU/ml (Staphylococcus aureus [9]): 2.8
log10CFU/ml (Staphylococcus aureus [10]): 0.7
log10CFU/ml (Streptococcus pyogenes [11]): 2.2
log10CFU/ml (Streptococcus pyogenes [12]): 3.1
log10CFU/ml [13]: 0.5
log10CFU/ml [14]: 0.5
log10CFU/ml (Streptococcus agalactiae [15]): 2.3
log10CFU/ml (Streptococcus pyogenes [16]): 2.7
log10CFU/ml (Streptococcus pneumoniae [17]): 3.4
log10CFU/ml (Streptococcus agalactiae [18]): 1.6
log10CFU/ml (Streptococcus agalactiae [19]): 0.8
log10CFU/ml (Enterococcus faecalis [20]): 0.5
log10CFU/ml (Streptococcus pneumoniae [21]): 1.8
log10CFU/ml (Staphylococcus aureus [22]): 0.3
log10CFU/ml (Streptococcus pyogenes [23]): 2.2
log10CFU/ml (Streptococcus agalactiae [24]): 0.6
log10CFU/ml (Streptococcus pneumoniae [25]): 3.4
MIC (Streptococcus agalactiae [26]): 0.06 µg/mL (≈ 0.0342 µM)
log10CFU/ml (Staphylococcus aureus [27]): 3.4
log10CFU/ml (Streptococcus agalactiae [28]): 2.7
log10CFU/ml [29]: 0.7
log10CFU/ml (Enterococcus faecalis [30]): 0.6
log10CFU/ml (Streptococcus pneumoniae [31]): 1.2
log10CFU/ml (Staphylococcus aureus [32]): 0.7
MIC50 (Enterococcus faecalis [33]): inactive
MIC90 (Enterococcus faecalis [33]): inactive
log10CFU/ml (Staphylococcus aureus [34]): 0.7
Activity (Staphylococcus aureus [35]): 100%
MIC50 (Staphylococcus aureus [35]; Staphylococcus aureus): 0.25 µg/mL (≈ 0.142 µM)
MIC90 (Staphylococcus aureus [35]; Staphylococcus aureus): 0.5 µg/mL (≈ 0.285 µM)
log10CFU/ml (Streptococcus pneumoniae [36]): 3.4
log10CFU/ml (Staphylococcus aureus [37]): 3.4
log10CFU/ml (Streptococcus agalactiae [38]): 3.6
MIC (Streptococcus viridans): 0.015 µg/mL (≈ 0.00854 µM)
MIC50 (Streptococcus viridans): inactive
MIC90 (Streptococcus viridans): inactive
log10CFU/ml (Streptococcus pneumoniae [39]): 3
MIC50 (Staphylococcus capitis): 0.5 µg/mL (≈ 0.285 µM)
MIC90 (Staphylococcus capitis): 1 µg/mL (≈ 0.57 µM)
log10CFU/ml (Streptococcus pyogenes [40]): 0.4
log10CFU/ml (Staphylococcus aureus [41]): 3.4
log10CFU/ml (Streptococcus pneumoniae [42]): 3.3

— ChEMBL document CHEMBL1275440, “In vitro activity of telavancin against resistant gram-positive bacteria” (2008)
